A short description of the series: Human HepG2 cell viability assay in 384 well format. In kind it is toxicity, cell-based. The arrangement: dose 125 nL, time 70.5 hour; cytotoxicity at 70.5 h: concentration not given beside the values. As to conditions: HepG2 cells, read-out: Inhibition.

`COc1ccc(C(=O)c2cnc(C(C)C)n2C)cc1`: the cytotoxicity at 70.5 h is 17.7%. The same measure for `Cn1c2ccccc2c2ncn(CCN3CCOCC3)c(=O)c21`: 11.8%; for `CCOn1c(SC(C)C)nc2ccccc2c1=O`: -8.12%; for `O=C(CN1CCN(C(=O)c2ccccc2)CC1)Nc1ncc(Br)cc1Br`: -1.02%. Turning to `CC(C)c1nnc(NC(=O)CCC(=O)NCC2CCCO2)s1` (stereo not given), the cytotoxicity at 70.5 h was -12.5%. For `CCSc1nc2ccccc2c(=O)n1OCC(=O)OC`, the cytotoxicity at 70.5 h was -8.5%. Regarding `O=C(CN1CCOCC1)Nc1ncc(Br)cc1Br`, the cytotoxicity at 70.5 h is -5.32%. The figure for `COCCCN(Cc1ccccn1)S(=O)(=O)Cc1ccccc1` is -18.4%. The figure for `COc1ccc(Nc2c[nH]c(=O)[nH]c2=O)cc1` is 4.35%; for `Cn1c(CC(=O)O)c(Sc2ccccc2)c2ccccc21` it is -0.644%. Take `COc1cccc(Oc2nc(C)c(C(=O)O)s2)c1OC`: the cytotoxicity at 70.5 h is -13.3%. Consider `Cn1nc(-c2ccccc2)c(Br)c1C(=O)O`, for which the cytotoxicity at 70.5 h is -23.2%. For the compound `O=C(O)Cn1ccc(=O)c2ccc(Cl)cc21`, the cytotoxicity at 70.5 h is -7.34%. As to `CC(C)CCc1n[nH]c(C(=O)O)c1Br`, the cytotoxicity at 70.5 h is -7.1%.

On to `CC(C)CCc1n[nH]c(C(=O)O)c1I`, for which the cytotoxicity at 70.5 h is -8.29%. The figure for `Cn1nc(-c2ccc(Cl)cc2)c(Br)c1C(=O)O` is -23.3%; for `CC(C)Oc1ccc(CC2=N[C@](C)(CO)CO2)cc1` it is 21.4%. On to `Nc1nc2c(c3c1C(=O)NC3=O)CCCC2`, for which the cytotoxicity at 70.5 h was -9.66%. On to `C/C(NC(=O)c1ccccn1)=C1\C(=O)C[C@@H]2[C@H]1C2(C)C`, for which the cytotoxicity at 70.5 h is -2.07%. The figure for `Cc1c(C2N3C[C@]4(C)CN2C[C@](C)(C3)C4=O)[nH]c(=O)[nH]c1=O` (stereo not given in full) is -11.7%; for `O=C(Cn1ccc2ccc(F)cc21)NC[C@@H]1CCCN2CCCC[C@H]12` it is 8.28%. On to `O=C(CCn1ccc2cc(Br)ccc21)NC[C@@H]1CCCN2CCCC[C@H]12`, for which the cytotoxicity at 70.5 h amounted to 19.3%. Take `COc1cccc2ccn(CC(=O)NCCC(C)C)c12`: the cytotoxicity at 70.5 h stood at 11%. The figure for `COc1cccc2ccn(CC(=O)NC(C)C)c12` is 11.3%. The same measure for `COCC(=O)N(Cc1ccc2cc[nH]c2c1)C1CC1`: -21%; for `COc1c(C(N)=O)cn(C)c1-c1nc2cc(NC(C)=O)ccc2n1C`: -14.7%; for `CSCC[C@H](NC(=O)Cn1ccc2c(Br)cccc21)C(=O)O`: -21.8%. Turning to `Cc1nn(-c2ncnc3[nH]cnc23)c2c1C(CC(C)C)CC(=O)N2` (stereo not given), the cytotoxicity at 70.5 h is -2.59%.

Consider `COc1ccc2c(ccn2CC(=O)NC[C@@H]2CCCN3CCCC[C@H]23)c1`, for which the cytotoxicity at 70.5 h is -7.27%. The same measure for `O=C(Cn1ccc2ccccc21)NC[C@@H]1CCCN2CCCC[C@H]12`: -10.1%; for `Cc1cccc2c1ccn2CC(=O)NC[C@@H]1CCCN2CCCC[C@H]12`: -6.63%; for `O=C(NCCCO)c1cc(-c2ccc3c(c2)CCO3)n[nH]1`: 14.5%. With `CC[S+](CC)[c-]1c(=O)[nH]c(=O)n(Cc2ccc(F)cc2)c1=O`, the cytotoxicity at 70.5 h is 3.21%. In the case of `CN(C)c1no[n+]([O-])c1-c1ccccc1`, the cytotoxicity at 70.5 h worked out at 20.3%. On to `Cc1cc(NCCO)nc(-c2ccccc2O)n1`, for which the cytotoxicity at 70.5 h worked out at 6.62%. The figure for `COc1ccc2c(c1)[nH]c1c(N(C)CC3OCCO3)ncnc12` is 7.79%; for `CCSc1nnc(CCNC(=O)OC(C)(C)C)o1` it is 13%; for `COc1cccc(-c2nc(CC(=O)NC3(C)CCS(=O)(=O)C3)cs2)c1` (stereo not given) it is -8.05%. `O=C(O)CCNC(=O)N1CCc2c([nH]c3ccc(Cl)cc23)C1`: the cytotoxicity at 70.5 h was -6.59%. Take `CCOC(=O)COc1nc(CC(C)C)c2c(c1C#N)CCC2`: the cytotoxicity at 70.5 h was 1.02%. The figure for `C[C@@H](CO)NC(=O)c1ccc2nc(NS(C)(=O)=O)sc2c1` is -2.43%; for `COc1ccc(-c2nc(C#N)c(N(C)C)o2)cc1S(=O)(=O)N1CCCC1` it is 14.1%. The same measure for `Cc1ccc(NC(=O)CC2NC(N3CCc4ccccc43)=NC2=O)cc1` (stereo not given): -7.26%; for `O=C(c1ccccc1)N(CC1CC1)c1cccnc1`: -1.58%; for `O=C(c1nc(Cc2c[nH]c3ccccc23)no1)N1CCOCC1`: -3.8%. The same measure for `O=C(C1CC=CC1)N1CC[C@@H]2O[C@@H](COCC3CCOCC3)CC[C@@H]21`: 6.54%; for `Cc1cc(C)c(CNC(=O)N(C)Cc2ccc3c(c2)OCO3)c(=O)[nH]1`: -3.96%. Take `COc1cccc(CN(C)C(=O)NCc2c(C)cc(C)[nH]c2=O)c1`: the cytotoxicity at 70.5 h is -4.51%. The figure for `CC(NC(=O)NCc1ccccc1)(C(=O)O)c1ccco1` (stereo not given) is -9.81%; for `CCOc1ccnc(N2CCN(C(=O)c3ccoc3)CC2)n1` it is 18.6%; for `Cc1nnc2n1CCN(C(=O)c1cc(C)n(-c3cccnc3)c1C)C2` it is -1.82%. The figure for `COc1cc(C)nc(N2CCN(C(=O)c3cccc(C#N)c3)CC2)n1` is -5.09%; for `CCOc1ccnc(N2CCN(C(=O)c3cccnc3)CC2)n1` it is -8.35%. The same measure for `CC(C)c1nccn1C1CCCN(C(=O)c2nccnc2N)C1` (stereo not given): 17.2%; for `Cc1ncncc1C(=O)N1CCOC(c2nc(C(C)C)n[nH]2)C1` (stereo not given): -4.74%; for `Cc1cc(C)n(CC2CN(CCOc3ccc(C#N)cc3)CCO2)n1` (stereo not given): -4.48%. For `O=C(NCc1ccccc1Cn1cncn1)C1CCC1`, the cytotoxicity at 70.5 h was -4.18%. The figure for `O=C(NCc1ccccc1Cn1cncn1)C1CCCCC1` is -9.09%; for `O=C(CCS(=O)(=O)C1CCCC1)NCc1ccccc1Cn1cncn1` it is -11%.

`Cc1nccn1-c1cc(CNC(=O)NCC2CCCO2)ccn1` (stereo not given): the cytotoxicity at 70.5 h is -0.7%. The same measure for `OCCn1nccc1C1CCN(CCOc2cccc(F)c2)CC1`: -1.45%; for `Cc1ccc(C(C)NCc2c(C(C)C)nn(C)c2N2CCOCC2)o1` (stereo not given): -5.88%; for `CC(C)c1nn(C)c(N(C)C)c1CNCc1cccc2c1OCO2`: -3.25%. On to `Cc1ncsc1C(=O)NC1CCN(CC(N)=O)CC1`, for which the cytotoxicity at 70.5 h is -6.12%. The same measure for `O=C(c1cccnc1N1CCCCC1)N1CCCC(n2cccn2)C1` (stereo not given): 15.6%; for `Cc1cccc(OCCNC(=O)CN2CCc3cncnc3C2)c1`: -7.19%; for `Cc1cnn(CC2CCCN2C(=O)c2c(C)noc2C(C)C)c1` (stereo not given): 11.7%.

Consider `c1ccc(-n2cc(CNCC3CCCN3c3cccnn3)nn2)cc1` (stereo not given), for which the cytotoxicity at 70.5 h is -1.58%. `CC(C)c1n[nH]c(C2CN(C(=O)c3cn4ccccc4n3)CCO2)n1` (stereo not given): the cytotoxicity at 70.5 h turned out to be 15.7%. In the case of `CC(C)c1n[nH]c(C2CN(C(=O)c3cc(C(N)=O)cs3)CCO2)n1` (stereo not given), the cytotoxicity at 70.5 h is 0.559%. The figure for `CC(C)c1n[nH]c(C2CN(C(=O)c3cc(C4CC4)[nH]n3)CCO2)n1` (stereo not given) is -10.5%; for `Cc1cnn(CC(C)NCc2nc(-c3cccs3)no2)c1` (stereo not given) it is -7.53%. For the compound `CC(Cn1cccn1)NCc1nc(-c2ccco2)no1` (stereo not given), the cytotoxicity at 70.5 h is -16.5%. Regarding `Cc1nc(C)n(CC2CN(Cc3cccc(OC(C)C)c3)CCO2)n1` (stereo not given), the cytotoxicity at 70.5 h was -10.6%. The same measure for `CC(C)c1ncc2c(n1)CN(Cc1nc(-c3ccsc3)no1)CC2`: -13.7%; for `Cc1nc(C)n(CC2CN(Cc3ccccc3OC(C)C)CCO2)n1` (stereo not given): -9.52%.

Regarding `CC(C)c1nccc(N2CCN(CC(=O)N3CCOCC3)CC2)n1`, the cytotoxicity at 70.5 h is -10.5%. Consider `CC(C)c1noc(C(C)N2CCN(Cc3cccs3)CC2)n1` (stereo not given), for which the cytotoxicity at 70.5 h worked out at 12.6%. The same measure for `COc1ccc(C)cc1CN1CCOC(Cn2nc(C)nc2C)C1` (stereo not given): -19.6%; for `Cc1nc(C)n(CC2CN(Cc3cccc4ccccc34)CCO2)n1` (stereo not given): -11.6%; for `c1cc(CN2CCOC(Cn3cccn3)C2)c2c(c1)OCCO2` (stereo not given): -14.1%. The same measure for `CCc1ccc(CNC(=O)NCc2nnc3n2CCC3)s1`: 17.1%.

Take `O=C(NCCc1ccc(Cl)s1)NCc1nnc2n1CCCC2`: the cytotoxicity at 70.5 h was -12.9%. The figure for `Cc1cnc2c(S(=O)(=O)N(C)C3CCS(=O)(=O)C3)cccc2c1` (stereo not given) is -16.4%; for `CCC1CN(C(=O)CN2CCN(c3nccc(OC)n3)CC2)CCO1` (stereo not given) it is -12.3%. On to `CC(Cn1cccn1)NCc1nc(-c2ccsc2)no1` (stereo not given), for which the cytotoxicity at 70.5 h was found to be 5.46%. Consider `COc1ccnc(N2CCN(CC(O)CN3CCOCC3)CC2)n1` (stereo not given), for which the cytotoxicity at 70.5 h was -8.1%. The figure for `Cc1nc(C)n(CC2CCCN(Cc3cccc4c3OCCO4)C2)n1` (stereo not given) is 12%.

For `Cc1nc(C)n(CC2CN(Cc3nc4ccccc4n3C)CCO2)n1` (stereo not given), the cytotoxicity at 70.5 h is -13.3%. As for `Cc1nc(C)n(CC2CN(Cc3ccccc3C#N)CCO2)n1` (stereo not given), the cytotoxicity at 70.5 h was -3.74%. The same measure for `CCCn1nc2c(cc1=O)CN(Cc1nc(C)c(C)o1)CC2`: -9.42%; for `O=C(c1cc(Cl)c[nH]1)N1CCCC(c2cc(C(F)(F)F)[nH]n2)C1` (stereo not given): 3.82%.

Take `CCSc1nnc([C@@H](N)CC(C)C)o1`: the cytotoxicity at 70.5 h is -7.55%. On to `Cc1cccc(CS(=O)(=O)c2nnc([C@@H](N)Cc3ccccc3)o2)c1`, for which the cytotoxicity at 70.5 h was found to be 12.4%. On to `CCOC(=O)CSc1nnc([C@@H](N)C(C)CC)o1` (stereo not given in full), for which the cytotoxicity at 70.5 h is -9.94%. On to `CCOC(=O)CSc1nnc([C@@H](N)C(C)C)o1`, for which the cytotoxicity at 70.5 h is -7.09%. The figure for `CCOC(=O)CSc1nnc([C@@H](N)CC(C)C)o1` is -6.75%; for `Cc1ccc(C(CCNCCCN(C)C)C2CCOC(C)(C)C2)cc1` (stereo not given) it is 30.6%. The figure for `Cc1cnc(N2CCCC3(CCCN3CC(=O)N(C)C)C2)nc1` (stereo not given) is 12.8%; for `c1cnc(N2CC[C@@H](N3CCOCC3)[C@@H]2Cc2ccncc2)nc1` it is 11.8%.

These data come from ChEMBL document CHEMBL3507680, “University of Dundee, Gates Library screen for HepG2 cell viability”.
